Measured values published in PMC9103758 (International Journal of Molecular Sciences, 2022).
Values joined by “and” are separate entries in the source; they are usually repeats but may differ in a detail not shown here. Equal values may be shown once.

Tests used:
[1] = tested on: NIH-3T3 cells; experiment: Cell viability (MTS/MTT) in NIH-3T3 cells; format: cell-based; conditions: 24 h, up to/at 30 μM
Experimental: […]. (A) Structure of VI-116. (B) Representative YFP fluorescence traces. The inhibitory effects of VI-116 on VRAC activity were determined using YFP fluorescence assay in LN215 cells. VRAC was activated by application of […] solution for 5 min. (C) Summary of VRAC dose-response (mean ± S.E., n = 4). (D) Summary of VRAC dose−response with 10% FBS (mean ± S.E., n = 4). […].
NIH-3T3 cells were plated on 96-well microplates. After 24 h incubation, cells were treated with VI-116 or DCPIB and incubated for 24 h. The culture medium and the compounds were changed every 12 h. To assess cell proliferation, the cells were incubated with MTS for 1 h. The soluble formazan produced by the cellular reduction of MTS was quantified by measuring the absorbance at 490 nm with an Infinite M200 (Tecan, Grödig, Austria) microplate reader. MTS assay was performed using a CellTiter 96 Aqueous One Solution Cell Proliferation Assay kit (Promega, Madison, WI, USA).

[2] = biological target: T1, human ANO2 (Homo sapiens, UniProt Q9NQ90); experiment: YFP fluorescence quenching assay in FRT cells expressing human ANO2; format: cell-based; conditions: FRT cells expressing human ANO2, up to 10 μM
T1 construct: expressed in transfected cells; host or cells: Fisher rat thyroid (FRT) cells
T1 sequence (Q9NQ90 1-998): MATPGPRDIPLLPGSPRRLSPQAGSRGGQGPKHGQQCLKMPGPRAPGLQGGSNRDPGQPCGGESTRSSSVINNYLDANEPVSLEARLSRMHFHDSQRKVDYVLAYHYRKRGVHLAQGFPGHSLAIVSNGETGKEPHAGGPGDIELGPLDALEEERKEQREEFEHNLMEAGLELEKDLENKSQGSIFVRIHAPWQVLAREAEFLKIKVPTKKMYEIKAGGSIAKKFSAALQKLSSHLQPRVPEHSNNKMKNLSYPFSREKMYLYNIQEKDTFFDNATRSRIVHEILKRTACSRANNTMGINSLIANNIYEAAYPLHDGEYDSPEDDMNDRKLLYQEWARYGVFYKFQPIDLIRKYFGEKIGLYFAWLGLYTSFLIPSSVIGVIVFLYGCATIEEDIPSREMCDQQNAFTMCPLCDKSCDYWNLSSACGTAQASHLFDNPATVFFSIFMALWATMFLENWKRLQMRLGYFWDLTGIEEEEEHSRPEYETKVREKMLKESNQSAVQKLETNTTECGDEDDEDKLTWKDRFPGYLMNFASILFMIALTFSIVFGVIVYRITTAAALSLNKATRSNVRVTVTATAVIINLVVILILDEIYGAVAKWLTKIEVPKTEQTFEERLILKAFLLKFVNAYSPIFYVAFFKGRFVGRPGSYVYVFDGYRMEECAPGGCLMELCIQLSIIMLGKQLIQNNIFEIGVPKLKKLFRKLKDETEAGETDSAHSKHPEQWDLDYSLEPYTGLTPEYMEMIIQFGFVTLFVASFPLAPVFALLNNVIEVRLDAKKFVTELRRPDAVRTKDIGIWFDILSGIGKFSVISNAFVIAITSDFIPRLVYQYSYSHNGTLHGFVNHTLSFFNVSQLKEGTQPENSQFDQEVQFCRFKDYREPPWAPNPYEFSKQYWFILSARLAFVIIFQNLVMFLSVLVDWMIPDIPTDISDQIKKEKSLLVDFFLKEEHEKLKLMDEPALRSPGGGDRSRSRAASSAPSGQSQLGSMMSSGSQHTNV
Experimental: ANO2 activity was measured using YFP fluorescence quenching assay in FRT cells expressing human ANO2.
(D) Representative YFP fluorescence traces in FRT cells expressing human ANO2.

[3] = biological target: T2, VRAC (Homo sapiens, UniProt Q8IWT6)
T2 sequence (Q8IWT6 1-810): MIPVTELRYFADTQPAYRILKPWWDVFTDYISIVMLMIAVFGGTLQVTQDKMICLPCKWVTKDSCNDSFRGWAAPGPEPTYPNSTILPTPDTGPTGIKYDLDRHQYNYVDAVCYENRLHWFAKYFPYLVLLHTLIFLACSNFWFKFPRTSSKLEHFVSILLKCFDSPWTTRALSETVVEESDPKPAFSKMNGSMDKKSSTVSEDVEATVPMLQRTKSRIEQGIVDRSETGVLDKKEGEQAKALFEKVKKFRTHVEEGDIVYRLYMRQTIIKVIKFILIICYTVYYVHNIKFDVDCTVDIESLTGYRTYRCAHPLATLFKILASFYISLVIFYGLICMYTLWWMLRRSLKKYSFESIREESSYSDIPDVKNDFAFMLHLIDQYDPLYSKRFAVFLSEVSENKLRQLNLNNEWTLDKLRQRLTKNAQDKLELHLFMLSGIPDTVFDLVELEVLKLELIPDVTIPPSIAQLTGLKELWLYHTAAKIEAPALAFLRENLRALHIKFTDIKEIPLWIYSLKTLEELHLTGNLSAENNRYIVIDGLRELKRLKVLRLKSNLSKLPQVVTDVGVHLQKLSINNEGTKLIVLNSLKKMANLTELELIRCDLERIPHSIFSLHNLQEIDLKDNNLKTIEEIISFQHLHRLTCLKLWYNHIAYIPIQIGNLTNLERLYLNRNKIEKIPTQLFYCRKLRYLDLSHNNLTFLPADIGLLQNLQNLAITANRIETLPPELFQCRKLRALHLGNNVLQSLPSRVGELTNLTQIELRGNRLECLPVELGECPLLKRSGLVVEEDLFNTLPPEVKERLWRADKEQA

[4] = biological target: T2, VRAC; experiment: cell-based; conditions: LN215 cells

COc1cccc(C(c2c(O)c3ccccc3oc2=O)c2c(O)c3ccccc3oc2=O)c1O [VI-116, 3,3′-((2-hydroxy-3-methoxyphenyl)methylene)bis(4-hydroxy-2H-chromen-2-one)]
effect on cell viability [1]: did not affect cell viability
effect on ANO2 activity [2]: minimal effect
effect on VRAC ([3]; 10 μM): completely inhibits
effect on VRAC activity (VRAC-mediated I- quenching) ([3]; LN215 cells): fully inhibited
decrease of potency on VRAC with 10% FBS compared to without FBS ([3]; LN215 cells, 10% FBS): 5.4 fold
IC50 ([4]; VRAC IC50, YFP fluorescence quenching, hypotonic solution 5 min, n = 4): 1.28 µM and 1.27 µM and 1.3 µM
IC50 ([4]; VRAC IC50 in the presence of 10% FBS, medium containing 10% FBS, 5 min): 6.89 µM
